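All cell lines were grown in 96-well plates and treated with compound for 48 hours. TGI is the concentration that stops growth completely.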
Experiments:
Experiment in all cases: NCI anticancer screen, dose series, 48 h
786-0 renal = tested on: 786-0 renal
COLO 205 colon = tested on: COLO 205 colon
HCC-2998 colon = tested on: HCC-2998 colon
HCT-15 colon = tested on: HCT-15 colon
HOP-62 NSCLC = tested on: HOP-62 NSCLC
M14 melanoma = tested on: M14 melanoma
MALME-3M melanoma = tested on: MALME-3M melanoma
MDA-MB-231 breast = tested on: MDA-MB-231 breast
MDA-MB-435 = tested on: MDA-MB-435
NCI-H226 lung = tested on: NCI-H226 lung
NCI/ADR-RES ovarian = tested on: NCI/ADR-RES ovarian
OVCAR-4 ovarian = tested on: OVCAR-4 ovarian
RPMI-8226 leukemia = tested on: RPMI-8226 leukemia
SK-MEL-28 melanoma = tested on: SK-MEL-28 melanoma
SK-OV-3 ovarian = tested on: SK-OV-3 ovarian
T-47D breast = tested on: T-47D breast
U251 CNS = tested on: U251 CNS
CCRF-CEM leukemia = tested on: CCRF-CEM leukemia

## COc1ccc(-c2cc(-c3ccc(Nc4ccnc5cc(Cl)ccc45)cc3)nc(N)c2C#N)cc1
786-0 renal
  TGI: > 100 µM
COLO 205 colon
  TGI: > 100 µM
HCC-2998 colon
  TGI: > 100 µM
HCT-15 colon
  TGI: > 100 µM
HOP-62 NSCLC
  TGI: > 100 µM
M14 melanoma
  TGI: > 100 µM
MALME-3M melanoma
  TGI: > 100 µM
MDA-MB-231 breast
  TGI: > 100 µM
MDA-MB-435
  TGI: > 100 µM
NCI-H226 lung
  TGI: > 100 µM
NCI/ADR-RES ovarian
  TGI: > 100 µM
OVCAR-4 ovarian
  TGI: > 100 µM
RPMI-8226 leukemia
  TGI: > 100 µM
SK-MEL-28 melanoma
  TGI: > 100 µM
SK-OV-3 ovarian
  TGI: > 100 µM
T-47D breast
  TGI: > 100 µM
U251 CNS
  TGI: > 100 µM

## COc1cc(NCc2ccc3nc(-c4ccccc4)c(N)nc3c2)cc(OC)c1OC
786-0 renal
  TGI: > 100 µM
CCRF-CEM leukemia
  TGI: 77 µM
COLO 205 colon
  TGI: 38.6 µM
HCC-2998 colon
  TGI: > 100 µM
HCT-15 colon
  TGI: > 100 µM
HOP-62 NSCLC
  TGI: > 100 µM
M14 melanoma
  TGI: 37.8 µM
MALME-3M melanoma
  TGI: 65.9 µM
MDA-MB-231 breast
  TGI: > 100 µM
MDA-MB-435
  TGI: 50.7 µM
NCI-H226 lung
  TGI: > 100 µM
NCI/ADR-RES ovarian
  TGI: 57.8 µM
OVCAR-4 ovarian
  TGI: > 100 µM
SK-MEL-28 melanoma
  TGI: 69 µM
SK-OV-3 ovarian
  TGI: > 100 µM
T-47D breast
  TGI: 91 µM
U251 CNS
  TGI: > 100 µM

## COc1cc(Cn2c(=S)ss/c2=N\C(=S)N(C)C)cc(OC)c1OC
786-0 renal
  TGI: > 91.3 µM
CCRF-CEM leukemia
  TGI: > 77.5 µM
COLO 205 colon
  TGI: > 86.9 µM
HCC-2998 colon
  TGI: > 95.4 µM
HCT-15 colon
  TGI: > 70.5 µM
HOP-62 NSCLC
  TGI: > 84.1 µM
M14 melanoma
  TGI: > 70.7 µM
MALME-3M melanoma
  TGI: > 100 µM
MDA-MB-231 breast
  TGI: > 47.4 µM
MDA-MB-435
  TGI: 15.8 µM
NCI-H226 lung
  TGI: > 71 µM
NCI/ADR-RES ovarian
  TGI: > 100 µM
OVCAR-4 ovarian
  TGI: > 95.6 µM
RPMI-8226 leukemia
  TGI: > 85.8 µM
SK-MEL-28 melanoma
  TGI: > 100 µM
SK-OV-3 ovarian
  TGI: > 63.1 µM
T-47D breast
  TGI: > 100 µM
U251 CNS
  TGI: > 82 µM

## CC(C)C1OC2(C)OC(=N)C1(C#N)C(C#N)(C#N)C2C (configuration not stated)
786-0 renal
  TGI: 51.7 µM
CCRF-CEM leukemia
  TGI: 51.4 µM
COLO 205 colon
  TGI: 27.6 µM
HCC-2998 colon
  TGI: 30.7 µM
HCT-15 colon
  TGI: 25.3 µM
M14 melanoma
  TGI: 30.5 µM
MALME-3M melanoma
  TGI: 57.8 µM
MDA-MB-231 breast
  TGI: 31.8 µM
MDA-MB-435
  TGI: > 100 µM
NCI-H226 lung
  TGI: > 100 µM
NCI/ADR-RES ovarian
  TGI: > 100 µM
SK-MEL-28 melanoma
  TGI: > 100 µM
SK-OV-3 ovarian
  TGI: > 100 µM
T-47D breast
  TGI: 33.5 µM
U251 CNS
  TGI: 65.7 µM

## NC1CC(N)c2c(Br)sc(Br)c21 (configuration not stated)
786-0 renal
  TGI: > 100 µM
CCRF-CEM leukemia
  TGI: > 100 µM
COLO 205 colon
  TGI: > 100 µM
HCC-2998 colon
  TGI: > 100 µM
HCT-15 colon
  TGI: > 100 µM
HOP-62 NSCLC
  TGI: > 100 µM
M14 melanoma
  TGI: > 100 µM
MALME-3M melanoma
  TGI: > 100 µM
MDA-MB-231 breast
  TGI: > 100 µM
MDA-MB-435
  TGI: > 100 µM
NCI-H226 lung
  TGI: > 100 µM
NCI/ADR-RES ovarian
  TGI: > 100 µM
OVCAR-4 ovarian
  TGI: > 100 µM
SK-MEL-28 melanoma
  TGI: > 100 µM
SK-OV-3 ovarian
  TGI: > 100 µM
T-47D breast
  TGI: > 100 µM
U251 CNS
  TGI: > 100 µM

## Cc1cnc(/N=c2\sc(C)cn2-c2ncc(C)s2)s1
786-0 renal
  TGI: > 100 µM
CCRF-CEM leukemia
  TGI: > 100 µM
COLO 205 colon
  TGI: > 100 µM
HCC-2998 colon
  TGI: > 100 µM
HCT-15 colon
  TGI: > 100 µM
HOP-62 NSCLC
  TGI: > 100 µM
M14 melanoma
  TGI: > 100 µM
MALME-3M melanoma
  TGI: > 100 µM
MDA-MB-231 breast
  TGI: > 100 µM
MDA-MB-435
  TGI: > 100 µM
NCI-H226 lung
  TGI: > 100 µM
NCI/ADR-RES ovarian
  TGI: > 100 µM
OVCAR-4 ovarian
  TGI: > 100 µM
RPMI-8226 leukemia
  TGI: > 100 µM
SK-MEL-28 melanoma
  TGI: > 100 µM
SK-OV-3 ovarian
  TGI: > 100 µM
T-47D breast
  TGI: > 100 µM
U251 CNS
  TGI: > 100 µM

## Cc1nn(C(=O)c2ccncc2)c2c1C(c1ccc(Cl)cc1)SC(N)=N2 (configuration not stated)
786-0 renal
  TGI: > 10 µM
CCRF-CEM leukemia
  TGI: > 10 µM
COLO 205 colon
  TGI: > 10 µM
HCC-2998 colon
  TGI: > 10 µM
HCT-15 colon
  TGI: > 10 µM
HOP-62 NSCLC
  TGI: > 10 µM
M14 melanoma
  TGI: > 10 µM
MALME-3M melanoma
  TGI: > 10 µM
MDA-MB-231 breast
  TGI: > 10 µM
MDA-MB-435
  TGI: > 10 µM
NCI-H226 lung
  TGI: > 10 µM
NCI/ADR-RES ovarian
  TGI: > 10 µM
OVCAR-4 ovarian
  TGI: > 10 µM
RPMI-8226 leukemia
  TGI: > 10 µM
SK-MEL-28 melanoma
  TGI: > 10 µM
T-47D breast
  TGI: > 10 µM

## CCO[C@@H]1CCC(S(=O)c2ccc(C)cc2)=CO1 (some centres not stated)
786-0 renal
  TGI: > 100 µM
COLO 205 colon
  TGI: > 100 µM
HCC-2998 colon
  TGI: > 100 µM
HCT-15 colon
  TGI: > 100 µM
HOP-62 NSCLC
  TGI: > 100 µM
MALME-3M melanoma
  TGI: > 100 µM
MDA-MB-231 breast
  TGI: > 100 µM
MDA-MB-435
  TGI: > 100 µM
NCI-H226 lung
  TGI: > 100 µM
NCI/ADR-RES ovarian
  TGI: > 100 µM
OVCAR-4 ovarian
  TGI: > 100 µM
RPMI-8226 leukemia
  TGI: > 100 µM
SK-MEL-28 melanoma
  TGI: > 100 µM
T-47D breast
  TGI: > 100 µM
U251 CNS
  TGI: > 100 µM

## COc1ccc(N=Nc2ccc3oc(=O)c(C(=O)Nc4ccccc4)cc3c2)cc1
786-0 renal
  TGI: > 10 µM
COLO 205 colon
  TGI: > 10 µM
HCC-2998 colon
  TGI: > 10 µM
HCT-15 colon
  TGI: > 10 µM
HOP-62 NSCLC
  TGI: > 10 µM
M14 melanoma
  TGI: > 10 µM
MALME-3M melanoma
  TGI: > 10 µM
MDA-MB-231 breast
  TGI: > 10 µM
MDA-MB-435
  TGI: > 10 µM
NCI-H226 lung
  TGI: > 10 µM
NCI/ADR-RES ovarian
  TGI: > 10 µM
OVCAR-4 ovarian
  TGI: > 10 µM
RPMI-8226 leukemia
  TGI: > 10 µM
SK-MEL-28 melanoma
  TGI: > 10 µM
SK-OV-3 ovarian
  TGI: > 10 µM
T-47D breast
  TGI: > 10 µM
U251 CNS
  TGI: > 10 µM

## C=C1CCC2CC1[C@@H](C(=O)c1c[nH]c3ccccc13)NC2(C)C (some centres not stated)
786-0 renal
  TGI: > 37.5 µM
CCRF-CEM leukemia
  TGI: > 37.5 µM
COLO 205 colon
  TGI: > 37.5 µM
HCC-2998 colon
  TGI: 32.4 µM
HCT-15 colon
  TGI: > 37.5 µM
HOP-62 NSCLC
  TGI: > 37.5 µM
MALME-3M melanoma
  TGI: > 37.5 µM
MDA-MB-231 breast
  TGI: > 37.5 µM
MDA-MB-435
  TGI: > 37.5 µM
NCI-H226 lung
  TGI: > 37.5 µM
NCI/ADR-RES ovarian
  TGI: > 37.5 µM
OVCAR-4 ovarian
  TGI: > 37.5 µM
RPMI-8226 leukemia
  TGI: > 37.5 µM
SK-MEL-28 melanoma
  TGI: > 37.5 µM
T-47D breast
  TGI: > 37.5 µM
U251 CNS
  TGI: > 37.5 µM

## Cc1nc2ccc(F)cc2c2c1CCO2
786-0 renal
  TGI: > 100 µM
CCRF-CEM leukemia
  TGI: > 100 µM
COLO 205 colon
  TGI: > 100 µM
HCC-2998 colon
  TGI: > 100 µM
HCT-15 colon
  TGI: > 100 µM
M14 melanoma
  TGI: > 100 µM
MALME-3M melanoma
  TGI: > 100 µM
MDA-MB-231 breast
  TGI: 93.6 µM
MDA-MB-435
  TGI: > 100 µM
NCI-H226 lung
  TGI: > 100 µM
NCI/ADR-RES ovarian
  TGI: > 100 µM
OVCAR-4 ovarian
  TGI: > 100 µM
RPMI-8226 leukemia
  TGI: > 100 µM
SK-MEL-28 melanoma
  TGI: > 100 µM
T-47D breast
  TGI: > 100 µM
U251 CNS
  TGI: > 100 µM

Source: PubChem BioAssay (NCI)
